These results are taken from US12448392B2, “Spiropiperidine derivatives” (89BIO LTD, priority 2016, dated 2025).

For the first experiment, the target named is T1, recombinant human baculovirus-expressed GST-tagged FASN (Homo sapiens, UniProt P49327).
T1 construct: GST
T1 sequence (P49327 whole entry): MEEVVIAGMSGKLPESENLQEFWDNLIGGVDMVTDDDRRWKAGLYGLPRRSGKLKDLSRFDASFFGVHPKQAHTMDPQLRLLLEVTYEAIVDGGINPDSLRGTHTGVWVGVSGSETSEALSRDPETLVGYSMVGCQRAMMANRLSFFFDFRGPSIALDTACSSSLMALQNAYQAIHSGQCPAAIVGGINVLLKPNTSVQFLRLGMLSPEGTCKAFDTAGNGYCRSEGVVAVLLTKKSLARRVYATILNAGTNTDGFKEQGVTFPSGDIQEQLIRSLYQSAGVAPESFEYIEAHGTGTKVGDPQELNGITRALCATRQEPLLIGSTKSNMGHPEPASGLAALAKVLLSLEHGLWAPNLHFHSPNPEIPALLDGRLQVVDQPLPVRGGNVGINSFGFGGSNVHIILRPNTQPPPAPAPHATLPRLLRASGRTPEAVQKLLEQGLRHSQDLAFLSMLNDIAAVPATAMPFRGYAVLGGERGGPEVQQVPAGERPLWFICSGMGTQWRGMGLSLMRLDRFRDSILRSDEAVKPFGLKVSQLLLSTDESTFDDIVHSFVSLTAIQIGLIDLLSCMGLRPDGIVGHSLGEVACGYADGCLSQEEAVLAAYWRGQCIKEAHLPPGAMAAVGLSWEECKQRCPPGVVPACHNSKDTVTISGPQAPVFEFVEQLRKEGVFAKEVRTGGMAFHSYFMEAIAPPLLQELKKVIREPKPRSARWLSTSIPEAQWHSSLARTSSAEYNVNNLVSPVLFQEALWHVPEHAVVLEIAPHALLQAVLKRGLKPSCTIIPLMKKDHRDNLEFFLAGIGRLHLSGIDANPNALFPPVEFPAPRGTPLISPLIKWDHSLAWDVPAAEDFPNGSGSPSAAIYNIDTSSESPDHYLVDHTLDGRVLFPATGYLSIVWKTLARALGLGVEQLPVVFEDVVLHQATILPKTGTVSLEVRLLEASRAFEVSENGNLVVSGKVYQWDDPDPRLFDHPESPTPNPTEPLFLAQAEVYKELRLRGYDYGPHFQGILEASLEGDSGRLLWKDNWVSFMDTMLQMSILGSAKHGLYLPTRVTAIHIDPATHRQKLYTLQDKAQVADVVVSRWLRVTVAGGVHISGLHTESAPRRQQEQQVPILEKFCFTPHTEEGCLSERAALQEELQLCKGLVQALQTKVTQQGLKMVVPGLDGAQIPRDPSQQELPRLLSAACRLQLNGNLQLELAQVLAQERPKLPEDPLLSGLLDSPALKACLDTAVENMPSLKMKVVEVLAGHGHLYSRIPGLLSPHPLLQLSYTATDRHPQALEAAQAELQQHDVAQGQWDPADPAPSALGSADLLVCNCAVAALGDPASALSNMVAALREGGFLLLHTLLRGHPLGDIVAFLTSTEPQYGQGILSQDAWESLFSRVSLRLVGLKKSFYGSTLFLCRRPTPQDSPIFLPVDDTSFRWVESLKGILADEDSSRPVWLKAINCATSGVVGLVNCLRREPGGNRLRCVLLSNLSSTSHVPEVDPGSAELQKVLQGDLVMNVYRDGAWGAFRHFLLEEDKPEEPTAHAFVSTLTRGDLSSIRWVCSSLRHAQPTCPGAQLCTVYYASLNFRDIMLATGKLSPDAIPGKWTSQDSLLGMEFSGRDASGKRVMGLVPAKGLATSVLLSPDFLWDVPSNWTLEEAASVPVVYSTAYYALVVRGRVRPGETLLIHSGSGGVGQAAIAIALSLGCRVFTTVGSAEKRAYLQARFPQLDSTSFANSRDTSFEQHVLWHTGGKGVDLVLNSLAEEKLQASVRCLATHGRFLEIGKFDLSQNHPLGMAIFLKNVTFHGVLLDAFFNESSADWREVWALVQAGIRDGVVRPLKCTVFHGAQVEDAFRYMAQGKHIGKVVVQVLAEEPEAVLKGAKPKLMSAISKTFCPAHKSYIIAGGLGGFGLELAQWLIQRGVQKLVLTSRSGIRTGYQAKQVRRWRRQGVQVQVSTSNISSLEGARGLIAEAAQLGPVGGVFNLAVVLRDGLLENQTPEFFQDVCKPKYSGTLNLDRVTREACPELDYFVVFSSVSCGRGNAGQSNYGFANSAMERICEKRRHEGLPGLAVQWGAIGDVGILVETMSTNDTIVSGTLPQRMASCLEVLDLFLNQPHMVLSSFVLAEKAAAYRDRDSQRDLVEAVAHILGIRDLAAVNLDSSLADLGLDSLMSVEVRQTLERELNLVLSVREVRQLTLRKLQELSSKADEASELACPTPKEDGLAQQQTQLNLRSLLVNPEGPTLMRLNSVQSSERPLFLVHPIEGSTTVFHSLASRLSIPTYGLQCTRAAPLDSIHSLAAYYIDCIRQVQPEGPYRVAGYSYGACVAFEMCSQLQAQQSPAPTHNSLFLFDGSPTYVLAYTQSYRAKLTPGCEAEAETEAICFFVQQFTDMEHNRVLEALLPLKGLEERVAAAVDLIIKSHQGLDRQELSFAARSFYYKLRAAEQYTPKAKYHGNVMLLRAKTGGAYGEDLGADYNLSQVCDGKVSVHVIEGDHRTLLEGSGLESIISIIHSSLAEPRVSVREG
Kind of experiment: biochemical.
Details: not given
Usually IC50 stands for the midpoint of a concentration-inhibition curve. Consider `COc1cc(-c2ccc3cccnc3c2C)cc2c1OC1(CCN(C(N)=O)CC1)OC2` [Example 247, 8-Methoxy-6-(8-methyl-7-quinolyl)spiro[4H-1,3-benzodioxine-2,4′-piperidine]-1′-carboxamide], for which the 50% inhibitory concentration (IC50) was 1 to 10 µM.
Take `CONC(=O)N1CCC2(CC1)OCc1cc(-c3ccc4c(C)nccc4c3)cc(OC)c1O2` [Example 248]: the IC50 is 1 to 10 µM.

The experiment is the same for the next values; noted with them: 5 nM FASN, 150 μM NADPH, 10 μM acetyl-CoA, 25 μM malonyl-CoA, 90 minutes incubation; read-out: IC50 data for Compounds of Formula I, Activity.
As to `CONC(=O)N1CCC2(CCc3cc(-c4ccc5cccnc5c4C)cc(F)c3O2)CC1` [Example 238, 8-Fluoro-N-methoxy-6-(8-methyl-7-quinolyl)spiro[chromane-2,4′-piperidine]-1′-carboxamide], the IC50 lay within 0.001 to 0.099 µM.
On the same count and under the same terms, the same measure for `Cc1nccc2cc(-c3ccc4c(c3F)CCC3(CCN(C(N)=O)CC3)O4)ccc12` [Example 239, 5-Fluoro-6-(1-methyl-6-isoquinolyl)spiro[chromane-2,4′-piperidine]-1′carboxamide]: 1 to 10 µM; for `Cc1c(-c2ccc3cccnc3c2C)ccc2c1CCC1(CCN(C(N)=O)CC1)O2` [Example 240, 5-Methyl-6-(8-methyl-7-quinolyl)spiro[chromane-2,4′-piperidine]-1′-carboxamide]: 1 to 10 µM.
`Cc1c(-c2ccc3c(C)nccc3c2)ccc2c1CCC1(CCN(C(N)=O)CC1)O2` [Example 241, 5-methyl-6-(1-methyl-6-isoquinolyl)spiro[chromane-2,4′-piperidine]-1′-carboxamide]: the IC50 lay in the range of 1 to 10 µM.
Same read-out and setting: to `CONC(=O)N1CCC2(CCc3cc(-c4ccc5c(C)nccc5c4)cc(F)c3O2)CC1` [Example 242] belongs 0.001 to 0.099 µM; to `Cc1c(-c2ccc3c(c2F)CCC2(CCN(C(N)=O)CC2)O3)ccc2cccnc12` [Example 243, 5-Fluoro-6-(8-methyl-7-quinolyl)spiro[chromane-2,4′-piperidine]-1′-carboxamide], 0.1 to 0.999 µM.
Still for that read-out and setting: to `Cc1cc2c(cc1-c1ccc3cccnc3c1C)CCC1(CCN(C(N)=O)CC1)O2` [Example 244, 7-Methyl-6-(8-methyl-7-quinolyl)spiro[chromane-2,4′-piperidine]-1′-carboxamide] belongs 1 to 10 µM; to `CONC(=O)N1CCC2(CCc3cc(-c4ccc5cccnc5c4C)c(C)cc3O2)CC1` [Example 245, N-methoxy-7-methyl-6-(8-methyl-7-quinolyl)spiro[chromane-2,4′-piperidine]-1′-carboxamide], 0.1 to 0.999 µM.
For the molecule `CONC(=O)N1CCC2(CCc3cc(-c4ccc5c(C)nccc5c4)c(C)cc3O2)CC1` [Example 246, N-Methoxy-7-methyl-6-(1-methyl-6-isoquinolyl)spiro[chromane-2,4′-piperidine]-1′-carboxamide], the IC50 is 0.1 to 0.999 µM.
As for `Cc1c(-c2cc(Cl)c3c(c2)CCC2(CCN(C(N)=O)CC2)O3)ccc2cccnc12` [Example 249, 8-chloro-6-(8-methyl-7-quinolyl)spiro[chromane-2,4′-piperidine]-1′-carboxamide], the IC50 was in the range of 1 to 10 µM.
Same read-out and setting: to `CONC(=O)N1CCC2(CCc3cc(-c4ccc5cccnc5c4C)cc(Cl)c3O2)CC1` [Example 250, 8-Chloro-N-methoxy-6-(8-methyl-7-quinolyl)spiro[chromane-2,4′-piperidine]-1′-carboxamide] belongs 0.1 to 0.999 µM; to `Cc1c(-c2ccc3c(c2)CCC2(CCN(C(N)=O)CC2)O3)ccc2c(O)ccnc12` [Example 251, 6-(4-Hydroxy-8-methyl-7-quinolyl)spiro[chromane-2,4′-piperidine]-1′-carboxamide], 1 to 10 µM.

Another experiment deals with viral replication (Flaviviridae family).
Assay: not given
The following applies: inhibition of FASN by small molecule inhibitors; cited from earlier work.
With `C/C=C/C/C=C/CCC(=O)[C@H]1O[C@H]1C(N)=O` [Cerulenin], the “inhibition of viral replication” value was “strong inhibition of viral replication”.
Take `CCCCCCCCCCC[C@@H](C[C@@H]1OC(=O)[C@H]1CCCCCC)OC(=O)[C@H](CC(C)C)NC=O` [Orlistat]: the “inhibition of viral replication” value is on record as “strong inhibition of viral replication”.

System in another experiment: not given
Assay: not given
The following applies: non-specific irreversible FASN inhibitors; cited from earlier work.
Consider `C/C=C/C/C=C/CCC(=O)[C@H]1O[C@H]1C(N)=O` [Cerulenin], for which the “brain levels of orexigenic neuropeptides” value is “decrease brain levels of orexigenic neuropeptides” and the food intake result is listed as “decrease food intake”.
Take `C=C1C(=O)OC(CCCCCCCC)C1C(=O)O` (centres unmarked) [Example C-75]: the “brain levels of orexigenic neuropeptides” value is recorded as “decrease brain levels of orexigenic neuropeptides” and the food intake entry was “decrease food intake”.
